One may read the GI50 as the concentration at which growth is held to half of that of the control.

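Method: 48-hour compound exposure of cells in 96-well plates, five concentrations, linear interpolation of endpoints. The concentration for 50% growth inhibition is given as GI50.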 Calls of active or inactive are those of the source. No stated cut-off is given here; in the data, active = GI50 up to about 1.1 µM and inactive = higher. Where only a bound is given, the exact number is not on record here.

Among the test systems are 786-0; UO-31; SK-MEL-28; RPMI-8226; SNB-19; HOP-92; HL-60; SF-539; A498; OVCAR-4; A549; MOLT-4; IGROV-1; COLO 205; SK-OV-3.
Holding throughout (test): DTP human tumour cell line panel, 48 h

Take `COC(=O)NC(=O)c1cn(CCCOC(=O)CCCCCCCCC(=O)OCCCn2cc(C(=O)NC(=O)OC)c(=O)[nH]c2=O)c(=O)[nH]c1=O`: the GI50 in the assay on 786-0 was 88.5 µM (inactive); in the assay with UO-31 it was > 100 µM (inactive); in the assay on SK-MEL-28 it was > 100 µM (inactive); in the assay with RPMI-8226 it was > 100 µM (inactive); in the assay with SNB-19, 42.4 µM (inactive); in the assay on HOP-92 it was 36.7 µM (inactive). Further, the GI50 is > 100 µM (inactive) with HL-60; 71.1 µM (inactive) with SF-539; > 100 µM (inactive) in the assay on A498; > 100 µM (inactive) in the assay on OVCAR-4; > 100 µM (inactive) in the assay on A549; > 100 µM (inactive) in the assay with MOLT-4. Further, the GI50 with IGROV-1 is 85.1 µM (inactive).

For the compound `CCc1cc2c(c3[nH]ccc13)[C@@H](C)C[C@H]2C`, the GI50 was 19.9 µM (inactive) in the assay on COLO 205; 15 µM (inactive) in the assay with 786-0; 18.3 µM (inactive) in the assay on UO-31; 30.5 µM (inactive) in the assay with SK-OV-3; 16.1 µM (inactive) with SK-MEL-28; 20.1 µM (inactive) in the assay with RPMI-8226. In addition, the GI50 was 16.2 µM (inactive) in the assay on HOP-92; 21.8 µM (inactive) in the assay with HL-60; > 10 µM (inactive) in the assay with SF-539; 15.6 µM (inactive) with A498; 19.6 µM (inactive) in the assay on A549; 14.3 µM (inactive) in the assay on MOLT-4. Further, the GI50 in the assay on IGROV-1 is 19.4 µM (inactive).

As to `COC(=O)C1C(=O)O[C@@H](c2ccc(OC)cc2)C1C(=O)OC` (stereo partly specified), the GI50 in the assay with COLO 205, with 786-0, in the assay with UO-31, in the assay on SK-OV-3, with SK-MEL-28 and in the assay on RPMI-8226 was > 100 µM (inactive) each time. Also, the GI50 with SNB-19 was > 100 µM (inactive); with HOP-92, > 100 µM (inactive); with SF-539 it was > 100 µM (inactive); in the assay on A498 it was 52.4 µM (inactive); in the assay with OVCAR-4, > 100 µM (inactive); with A549, > 100 µM (inactive). Besides, the GI50 with MOLT-4 and in the assay with IGROV-1 was > 100 µM (inactive) each time.

With `CCOC(=O)N1C(=O)C2C3C=CC(C2C1=O)C1C2C(=O)N(C(=O)OCC)C(=O)C2C31` (stereo unspecified), the GI50 is 98.9 µM (inactive) in the assay with COLO 205; > 83 µM (inactive) in the assay on 786-0; > 100 µM (inactive) with UO-31; > 100 µM (inactive) with SK-OV-3; > 100 µM (inactive) in the assay with SK-MEL-28; > 100 µM (inactive) in the assay with RPMI-8226. Moreover, the GI50 with SNB-19 is > 100 µM (inactive); in the assay with HOP-92, > 100 µM (inactive); in the assay with HL-60 it was 20.3 µM (inactive); with SF-539 it was > 100 µM (inactive); in the assay with A498, > 100 µM (inactive); with OVCAR-4, > 100 µM (inactive). Also, the GI50 in the assay on A549, with MOLT-4 and with IGROV-1 was > 100 µM (inactive) throughout.

As to `COc1cc(O)c2c(c1)C(=O)C=C(Cl)C2=O`, the GI50 was > 100 µM (inactive) with COLO 205; > 100 µM (inactive) with 786-0; 16 µM (inactive) with UO-31; > 100 µM (inactive) in the assay on SK-OV-3; > 100 µM (inactive) in the assay on SK-MEL-28; > 100 µM (inactive) in the assay on RPMI-8226. In addition, the GI50 with SNB-19 was > 100 µM (inactive); with HOP-92, > 100 µM (inactive); in the assay on HL-60, > 100 µM (inactive); with SF-539 it was 68.4 µM (inactive); with A498, > 100 µM (inactive); with OVCAR-4, > 100 µM (inactive). In addition, the GI50 with A549, in the assay with MOLT-4 and with IGROV-1 was > 100 µM (inactive) in each case.

With `CN(C)CC1CCCC(CN(C)C)C1=NOC(=O)c1ccccc1` (stereo unspecified), the GI50 with COLO 205, in the assay on 786-0, in the assay on UO-31, with SK-OV-3, with SK-MEL-28 and in the assay on RPMI-8226 was > 100 µM (inactive) throughout. Moreover, the GI50 in the assay with SNB-19, with HOP-92, with HL-60, in the assay with SF-539, in the assay with A498 and in the assay on A549 was > 100 µM (inactive) in each case. The GI50 in the assay with MOLT-4 and in the assay on IGROV-1 was > 100 µM (inactive) throughout.

Consider `CSc1nc2[nH]c(=O)c(C)nc2c(=O)[nH]1`, for which the GI50 in the assay on COLO 205, in the assay on 786-0, in the assay on UO-31, in the assay with SK-OV-3, with SK-MEL-28 and in the assay with RPMI-8226 was > 100 µM (inactive) each time. In addition, the GI50 in the assay on SNB-19, in the assay on HOP-92, in the assay on HL-60, with A498, in the assay with OVCAR-4 and in the assay with A549 was > 100 µM (inactive) each time. For the same compound, the GI50 in the assay with MOLT-4 and in the assay on IGROV-1 was > 100 µM (inactive) throughout.

In the case of `CN(CCN(C)C(=O)CCOS(C)(=O)=O)C(=O)CCOS(C)(=O)=O`, the GI50 with COLO 205, in the assay on 786-0, with SK-OV-3, in the assay on SK-MEL-28, in the assay with RPMI-8226 and in the assay with SNB-19 was > 100 µM (inactive) in each case. The GI50 in the assay with HOP-92 is > 100 µM (inactive); in the assay on HL-60, 30.9 µM (inactive); with SF-539, 44.1 µM (inactive); in the assay on A498, > 100 µM (inactive); with OVCAR-4 it was > 100 µM (inactive); with A549, > 100 µM (inactive). In addition, the figures for the GI50 in the assay with MOLT-4 and with IGROV-1 were 41 µM (inactive) and > 100 µM (inactive), respectively.

Consider `CN(C)CCNC(=O)c1cccc2ccc(-c3ccc(-c4ccccc4)cc3)nc12`, for which the GI50 was 1.6 µM (inactive) in the assay with COLO 205; 1.79 µM (inactive) in the assay with 786-0; 11.7 µM (inactive) in the assay with UO-31; 17 µM (inactive) in the assay on SK-OV-3; 1.76 µM (inactive) in the assay with SK-MEL-28; 11.4 µM (inactive) with SNB-19. For the same compound, the GI50 is 3.02 µM (inactive) with HOP-92; 1.93 µM (inactive) in the assay with HL-60; 1.8 µM (inactive) with SF-539; 3.44 µM (inactive) in the assay with A498; 2.72 µM (inactive) in the assay with OVCAR-4; 2.89 µM (inactive) in the assay on A549. Besides, the GI50 in the assay with MOLT-4 was 1.91 µM (inactive); with IGROV-1, 12.6 µM (inactive).

For the compound `O=C(Nc1c(O)[nH]c(=S)[nH]c1=O)c1ccccc1`, the GI50 with COLO 205, in the assay on 786-0, in the assay with UO-31, in the assay on SK-OV-3, with SK-MEL-28 and in the assay on RPMI-8226 was > 100 µM (inactive) in each case. In addition, the GI50 in the assay with SNB-19, in the assay with HOP-92, in the assay on HL-60, in the assay with SF-539, with A498 and with OVCAR-4 was > 100 µM (inactive) each time. Also, the GI50 in the assay on A549, in the assay with MOLT-4 and in the assay with IGROV-1 was > 100 µM (inactive) throughout.

On to `CC(=O)NNc1nc(C)c(C(=O)/C=C/c2ccc(Cl)cc2)s1`, for which the GI50 with COLO 205, with 786-0, in the assay on UO-31, with SK-OV-3, in the assay with SK-MEL-28 and in the assay with RPMI-8226 was > 100 µM (inactive) throughout. Further, the GI50 in the assay on SNB-19, in the assay with HOP-92, in the assay on HL-60, in the assay on SF-539, in the assay with A498 and in the assay with A549 was > 100 µM (inactive) each time. The GI50 in the assay on MOLT-4 and with IGROV-1 was > 100 µM (inactive) each time.

For the compound `O=c1c2cc(Br)cc(Br)c2[nH]c(=S)n1-c1ccccc1`, the GI50 is > 100 µM (inactive) in the assay with COLO 205; 99.1 µM (inactive) in the assay on 786-0; 40.5 µM (inactive) with UO-31; > 100 µM (inactive) in the assay with SK-OV-3; 50.7 µM (inactive) with SK-MEL-28; 28.9 µM (inactive) with RPMI-8226. For the same compound, the GI50 in the assay on SNB-19 is 60.8 µM (inactive); in the assay with HOP-92 it was 28.9 µM (inactive); with SF-539, 83 µM (inactive); with A498, > 100 µM (inactive); in the assay on OVCAR-4, 86.3 µM (inactive); with A549, 63.1 µM (inactive). Besides, the GI50 with IGROV-1 was > 100 µM (inactive).

For the compound `[O-][n+]1c2cc(CN3CCOCC3)c(CN3CCOCC3)cc2[n+]([O-])c2c(O)cccc21`, the GI50 in the assay on COLO 205 was 5 µM (inactive); in the assay on 786-0, 1.41 µM (inactive); in the assay with UO-31, 3.72 µM (inactive); in the assay on SK-OV-3, 4.13 µM (inactive); in the assay on SK-MEL-28, 14 µM (inactive); in the assay with RPMI-8226, 3.32 µM (inactive). For the same compound, the GI50 in the assay on SNB-19 was 9.44 µM (inactive); in the assay with HOP-92 it was 2 µM (inactive); in the assay with HL-60, 0.807 µM (active); in the assay on SF-539, 1.08 µM (active); in the assay with A498, 11 µM (inactive); in the assay on OVCAR-4, 4.29 µM (inactive). For the same compound, the GI50 in the assay with MOLT-4 was 0.627 µM (active); with IGROV-1 it was 5 µM (inactive).

As to `CCOC(=O)NC(=O)c1cn(CCCO)c(=O)[nH]c1=O`, the GI50 in the assay with COLO 205, in the assay with 786-0, in the assay with UO-31, with SK-OV-3, in the assay on SK-MEL-28 and in the assay on RPMI-8226 was > 100 µM (inactive) throughout. For the same compound, the GI50 in the assay with SNB-19, with HOP-92, in the assay with SF-539, with A498, with OVCAR-4 and in the assay on A549 was > 100 µM (inactive) in each case. Further, the GI50 with MOLT-4 and with IGROV-1 was > 100 µM (inactive) in each case.
